In ChEMBL document CHEMBL1201862, “PubChem BioAssay data set” (2004):
The source made the active and inactive calls.

Assays:
[1] = biological target: T1, Sentrin-specific protease 1 (Homo sapiens, UniProt Q9P0U3); experiment: potency of human SENP1 inhibitors, dose response, biochemical, kinetic FRET (AID 651697); type: functional; conditions: read-out: IC50_Mean
[2] = biological target: T1, Sentrin-specific protease 1; experiment: Dose response confirmation of small molecule inhibitors of the catalytic domain of the SUMO protease, SENP1 in a FRET assay.; type: functional; conditions: read-out: IC50_Mean
[3] = test system: H9c2; experiment: cells; type: functional, cell-based; conditions: Rattus norvegicus, H9c2, Myocardium;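 further: confirmatory concentration-response retest of ultra-high-throughput screening hits for modulation of myocardial damage; cell death induced by hydrogen peroxide oxidative stress; compound pretreatment for 60 min then peroxide exposure for 2 h; potency is for protecting the cells against peroxide damage rather than for killing them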
[4] = biological target: DNA repair protein RAD52 homolog (Homo sapiens, UniProt P43351); type: functional, biochemical
Chain of DNA repair protein RAD52 homolog (P43351 whole entry): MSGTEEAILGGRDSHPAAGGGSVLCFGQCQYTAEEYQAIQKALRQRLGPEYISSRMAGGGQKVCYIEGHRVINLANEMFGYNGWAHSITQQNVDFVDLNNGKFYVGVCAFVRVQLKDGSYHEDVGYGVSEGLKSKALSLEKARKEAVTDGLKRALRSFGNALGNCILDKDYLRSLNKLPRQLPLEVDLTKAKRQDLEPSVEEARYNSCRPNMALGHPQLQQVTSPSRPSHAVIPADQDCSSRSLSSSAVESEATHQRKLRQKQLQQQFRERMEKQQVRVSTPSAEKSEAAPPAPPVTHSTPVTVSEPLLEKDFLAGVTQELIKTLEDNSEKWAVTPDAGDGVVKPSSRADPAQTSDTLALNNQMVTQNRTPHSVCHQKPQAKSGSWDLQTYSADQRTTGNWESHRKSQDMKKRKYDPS

[5] = biological target: Dual specificity protein phosphatase 3 (Homo sapiens, UniProt P51452); experiment: VHR phosphatase inhibition, dose response, selectivity assay for STEP inhibitor project, biochemical (AID 602374); type: functional; conditions: read-out: IC50_Mean
Chain of Dual specificity protein phosphatase 3 (P51452 whole entry, the tested form may be a part): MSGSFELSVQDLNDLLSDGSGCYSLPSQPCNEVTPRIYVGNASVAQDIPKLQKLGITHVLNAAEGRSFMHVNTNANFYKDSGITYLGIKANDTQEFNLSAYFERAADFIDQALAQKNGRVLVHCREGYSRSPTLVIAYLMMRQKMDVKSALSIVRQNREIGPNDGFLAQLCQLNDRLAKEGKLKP

[6] = biological target: T2, Carboxy-terminal domain RNA polymerase II polypeptide A small phosphatase 1 (Homo sapiens, UniProt Q9GZU7); experiment: inhibitors of CTDSP1, concentration-response testing, biochemical assay, absorbance-based, actives from ultra-high-throughput screening (AID 540297); type: functional
T2 sequence (Q9GZU7 whole entry): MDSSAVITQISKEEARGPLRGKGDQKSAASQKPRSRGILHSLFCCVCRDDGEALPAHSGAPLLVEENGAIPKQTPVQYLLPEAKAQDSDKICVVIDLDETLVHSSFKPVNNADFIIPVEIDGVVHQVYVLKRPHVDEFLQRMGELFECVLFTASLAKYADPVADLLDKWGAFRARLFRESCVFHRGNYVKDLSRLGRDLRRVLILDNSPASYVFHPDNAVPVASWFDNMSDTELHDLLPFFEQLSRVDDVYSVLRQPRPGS

[7] = biological target: Tyrosine-protein phosphatase non-receptor type 11 (Homo sapiens, UniProt Q06124); experiment: SHP2 phosphatase inhibition, dose response, selectivity assay for STEP inhibitor project, biochemical (AID 602367); type: functional; conditions: read-out: IC50_Mean
Chain of Tyrosine-protein phosphatase non-receptor type 11 (Q06124 whole entry): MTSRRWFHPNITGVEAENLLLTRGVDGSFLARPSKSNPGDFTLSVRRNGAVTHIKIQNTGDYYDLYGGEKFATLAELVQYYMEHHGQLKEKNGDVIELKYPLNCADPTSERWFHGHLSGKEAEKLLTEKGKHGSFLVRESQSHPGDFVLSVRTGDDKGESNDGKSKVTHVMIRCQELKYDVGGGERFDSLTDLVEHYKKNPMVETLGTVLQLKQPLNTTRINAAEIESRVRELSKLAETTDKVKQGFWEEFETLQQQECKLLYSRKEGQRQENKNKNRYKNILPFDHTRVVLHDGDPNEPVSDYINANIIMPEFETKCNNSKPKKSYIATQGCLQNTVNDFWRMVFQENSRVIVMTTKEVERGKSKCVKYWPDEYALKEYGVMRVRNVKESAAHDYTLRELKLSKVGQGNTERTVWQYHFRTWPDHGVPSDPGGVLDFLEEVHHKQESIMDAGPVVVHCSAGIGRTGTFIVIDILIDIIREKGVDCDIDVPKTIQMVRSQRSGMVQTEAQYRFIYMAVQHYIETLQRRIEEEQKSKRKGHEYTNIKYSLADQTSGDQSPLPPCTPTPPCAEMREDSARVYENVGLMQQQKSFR

[8] = biological target: T3, Tyrosine-protein phosphatase non-receptor type 22 (Homo sapiens, UniProt Q9Y2R2); experiment: PTPN22 phosphatase inhibition, dose response, selectivity assay for STEP inhibitor project, biochemical (AID 624241); type: functional
T3 sequence (Q9Y2R2 whole entry): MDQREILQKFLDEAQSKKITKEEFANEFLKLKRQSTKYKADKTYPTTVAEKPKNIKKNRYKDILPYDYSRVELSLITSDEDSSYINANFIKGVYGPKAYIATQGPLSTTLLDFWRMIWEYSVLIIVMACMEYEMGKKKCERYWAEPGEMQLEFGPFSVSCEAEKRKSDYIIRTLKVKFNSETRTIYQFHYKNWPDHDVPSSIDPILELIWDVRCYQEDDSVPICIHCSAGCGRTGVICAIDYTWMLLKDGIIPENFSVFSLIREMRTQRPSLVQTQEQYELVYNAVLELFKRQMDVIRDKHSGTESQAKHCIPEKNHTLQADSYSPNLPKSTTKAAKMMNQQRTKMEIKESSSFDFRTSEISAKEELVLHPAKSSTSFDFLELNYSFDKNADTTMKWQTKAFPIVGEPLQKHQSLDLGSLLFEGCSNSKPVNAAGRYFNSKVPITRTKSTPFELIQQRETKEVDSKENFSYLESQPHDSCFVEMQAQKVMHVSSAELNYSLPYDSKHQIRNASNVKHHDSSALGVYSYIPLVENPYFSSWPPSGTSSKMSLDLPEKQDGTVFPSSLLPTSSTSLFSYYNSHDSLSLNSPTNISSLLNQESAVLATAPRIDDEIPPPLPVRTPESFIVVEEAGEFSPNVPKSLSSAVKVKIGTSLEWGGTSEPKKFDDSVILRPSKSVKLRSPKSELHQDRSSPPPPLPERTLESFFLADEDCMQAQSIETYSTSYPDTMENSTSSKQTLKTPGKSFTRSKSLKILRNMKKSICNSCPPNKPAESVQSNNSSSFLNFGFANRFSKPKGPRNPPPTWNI

[9] = biological target: Tyrosine-protein phosphatase non-receptor type 5 (Homo sapiens, UniProt P54829); experiment: STEP phosphatase inhibitors, confirmation, biochemical, fluorescence intensity, uHTS hits (AID 602372); type: functional; conditions: read-out: IC50_Mean
Chain of Tyrosine-protein phosphatase non-receptor type 5 (P54829 whole entry): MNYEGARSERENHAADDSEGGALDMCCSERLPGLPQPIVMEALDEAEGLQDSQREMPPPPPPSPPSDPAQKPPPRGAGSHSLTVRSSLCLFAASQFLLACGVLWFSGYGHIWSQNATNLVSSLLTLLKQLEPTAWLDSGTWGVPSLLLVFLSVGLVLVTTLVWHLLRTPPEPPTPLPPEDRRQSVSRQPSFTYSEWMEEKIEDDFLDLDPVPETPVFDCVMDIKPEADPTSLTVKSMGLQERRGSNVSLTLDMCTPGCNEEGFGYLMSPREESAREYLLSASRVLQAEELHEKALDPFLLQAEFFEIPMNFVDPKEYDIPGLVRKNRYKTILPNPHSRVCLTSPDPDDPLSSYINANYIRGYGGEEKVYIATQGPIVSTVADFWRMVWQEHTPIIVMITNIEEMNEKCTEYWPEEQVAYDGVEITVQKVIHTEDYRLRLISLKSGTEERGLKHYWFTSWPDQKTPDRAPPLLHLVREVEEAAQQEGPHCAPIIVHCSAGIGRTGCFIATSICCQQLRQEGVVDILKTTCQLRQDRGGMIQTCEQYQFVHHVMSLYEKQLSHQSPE

[10] = test system: Vero; experiment: Vero cell toxicity, dose response, cytotoxicity control, plate reader, cherry-pick samples (AID 687020); type: functional, cell-based; conditions: Chlorocebus sabaeus
[11] = biological target: Large T antigen (Simian virus 40, UniProt P03070); type: functional, Betapolyomavirus macacae;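 further: Confirmatory-stage PubChem screen for compounds that inhibit SV40 T antigen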
Chain of Large T antigen (P03070 whole entry): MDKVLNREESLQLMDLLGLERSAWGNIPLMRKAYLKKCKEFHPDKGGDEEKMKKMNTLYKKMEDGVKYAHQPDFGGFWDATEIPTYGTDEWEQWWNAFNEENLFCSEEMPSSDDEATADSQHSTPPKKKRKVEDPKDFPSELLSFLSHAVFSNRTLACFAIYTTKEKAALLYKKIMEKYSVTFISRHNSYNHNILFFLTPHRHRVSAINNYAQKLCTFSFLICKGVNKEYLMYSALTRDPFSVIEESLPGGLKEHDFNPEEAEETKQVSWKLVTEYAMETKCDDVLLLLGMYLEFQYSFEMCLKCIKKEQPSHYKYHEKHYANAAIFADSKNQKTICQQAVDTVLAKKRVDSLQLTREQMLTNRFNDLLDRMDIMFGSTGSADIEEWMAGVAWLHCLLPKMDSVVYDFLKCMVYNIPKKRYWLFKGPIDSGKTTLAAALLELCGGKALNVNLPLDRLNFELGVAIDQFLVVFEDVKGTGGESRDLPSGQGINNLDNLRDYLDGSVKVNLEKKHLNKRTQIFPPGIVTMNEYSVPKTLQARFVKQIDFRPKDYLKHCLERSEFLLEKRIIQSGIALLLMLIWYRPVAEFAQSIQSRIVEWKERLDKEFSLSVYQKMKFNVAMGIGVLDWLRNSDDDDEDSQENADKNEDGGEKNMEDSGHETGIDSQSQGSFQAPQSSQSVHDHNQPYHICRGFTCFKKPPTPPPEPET

[12] = biological target: T4, Trace amine-associated receptor 1 (Homo sapiens, UniProt Q96RJ0); experiment: Fluorescence-based cell-based high throughput dose response assay to identify agonists of the human trace amine associated receptor 1 (TAAR1).; type: functional
T4 sequence (Q96RJ0 whole entry): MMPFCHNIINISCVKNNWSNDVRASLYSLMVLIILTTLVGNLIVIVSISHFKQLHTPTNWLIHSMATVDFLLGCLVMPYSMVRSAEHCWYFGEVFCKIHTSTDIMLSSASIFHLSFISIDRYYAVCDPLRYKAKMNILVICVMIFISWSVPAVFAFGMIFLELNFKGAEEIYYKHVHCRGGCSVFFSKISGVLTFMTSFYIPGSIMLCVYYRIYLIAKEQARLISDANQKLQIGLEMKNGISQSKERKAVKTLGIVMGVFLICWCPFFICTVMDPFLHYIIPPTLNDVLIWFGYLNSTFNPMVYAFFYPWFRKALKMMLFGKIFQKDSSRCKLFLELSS

[13] = biological target: Galanin receptor type 3 (Homo sapiens, UniProt O60755); experiment: Fluorescence-based cell-based primary high throughput dose response assay to identify antagonists of the Galanin Receptor 3 (GalR3).; type: functional
Chain of Galanin receptor type 3 (O60755 whole entry): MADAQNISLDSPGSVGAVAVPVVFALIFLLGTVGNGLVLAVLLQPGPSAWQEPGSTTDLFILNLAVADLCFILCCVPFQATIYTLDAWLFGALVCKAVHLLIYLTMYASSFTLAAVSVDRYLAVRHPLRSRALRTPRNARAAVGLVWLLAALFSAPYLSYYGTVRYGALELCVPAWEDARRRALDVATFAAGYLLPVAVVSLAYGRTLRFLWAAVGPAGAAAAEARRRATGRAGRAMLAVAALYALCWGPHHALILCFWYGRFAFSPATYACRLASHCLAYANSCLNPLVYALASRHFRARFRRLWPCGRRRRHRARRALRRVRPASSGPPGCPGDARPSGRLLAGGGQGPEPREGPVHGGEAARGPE

[14] = biological target: Mu-type opioid receptor (Homo sapiens, UniProt P35372); type: functional, cell-based;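 further: U2OS cells with beta-arrestin recruitment to OPRM1 by beta-gal complementation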
Chain of Mu-type opioid receptor (P35372 whole entry): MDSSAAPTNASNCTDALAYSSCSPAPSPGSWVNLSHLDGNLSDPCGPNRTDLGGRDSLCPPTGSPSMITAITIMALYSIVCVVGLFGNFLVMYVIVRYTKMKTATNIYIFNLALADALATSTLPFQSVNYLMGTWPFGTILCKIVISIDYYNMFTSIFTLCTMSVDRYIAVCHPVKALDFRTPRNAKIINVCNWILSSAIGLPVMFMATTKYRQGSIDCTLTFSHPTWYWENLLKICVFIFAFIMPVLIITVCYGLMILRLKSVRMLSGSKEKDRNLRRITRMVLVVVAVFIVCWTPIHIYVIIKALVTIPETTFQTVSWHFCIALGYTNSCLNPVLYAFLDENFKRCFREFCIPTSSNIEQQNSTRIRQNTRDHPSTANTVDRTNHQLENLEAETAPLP

[15] = biological target: T5, Protein skinhead-1 (Caenorhabditis elegans, UniProt P34707); type: functional
T5 sequence (P34707 whole entry): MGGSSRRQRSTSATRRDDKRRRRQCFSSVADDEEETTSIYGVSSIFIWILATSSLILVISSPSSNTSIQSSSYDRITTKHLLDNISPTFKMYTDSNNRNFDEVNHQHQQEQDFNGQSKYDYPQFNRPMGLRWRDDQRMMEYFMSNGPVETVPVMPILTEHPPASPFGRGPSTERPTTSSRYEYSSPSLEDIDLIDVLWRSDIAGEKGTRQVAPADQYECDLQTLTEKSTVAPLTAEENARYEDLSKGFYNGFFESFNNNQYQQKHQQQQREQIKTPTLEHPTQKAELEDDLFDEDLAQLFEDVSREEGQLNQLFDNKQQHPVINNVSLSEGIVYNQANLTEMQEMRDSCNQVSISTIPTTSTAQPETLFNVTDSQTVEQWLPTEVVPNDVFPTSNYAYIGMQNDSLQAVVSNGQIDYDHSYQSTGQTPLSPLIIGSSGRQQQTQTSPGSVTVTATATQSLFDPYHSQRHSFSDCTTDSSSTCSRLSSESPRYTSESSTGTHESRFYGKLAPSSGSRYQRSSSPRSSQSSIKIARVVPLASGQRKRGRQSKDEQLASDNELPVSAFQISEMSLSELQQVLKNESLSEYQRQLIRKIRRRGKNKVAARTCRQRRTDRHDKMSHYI

[16] = biological target: T4, Trace amine-associated receptor 1; experiment: Counterscreen for agonists of the human trace amine associated receptor 1 (hTAAR1): Fluorescence-based cell-based high throughput dose response assay to identify hTAAR1 agonist that also desensitize TAAR1 receptor response.; type: functional
[17] = biological target: 5-hydroxytryptamine receptor 2A (Mus musculus, UniProt P35363); type: functional, cell-based;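 further: CHO-K1 cells with tagged receptor and beta-arrestin; agonist potency measured as compound-induced activation of the receptor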
[18] = biological target: FAD-linked sulfhydryl oxidase ALR (Homo sapiens, UniProt P55789); experiment: inhibitors of human ALR sulfhydryl oxidase, dose response, biochemical, H2O2 detection, luminescence, cherry-pick (AID 493248)
Chain of FAD-linked sulfhydryl oxidase ALR (P55789 whole entry): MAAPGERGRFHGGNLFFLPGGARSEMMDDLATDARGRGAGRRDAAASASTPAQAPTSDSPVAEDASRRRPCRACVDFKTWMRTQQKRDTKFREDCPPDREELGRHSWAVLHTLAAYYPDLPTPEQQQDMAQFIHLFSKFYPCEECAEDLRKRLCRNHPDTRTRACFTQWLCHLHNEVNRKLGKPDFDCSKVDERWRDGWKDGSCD

[19] = T. cruzi growth inhibition in host cells, dose response, cell-based, plate reader, dry powder, set 2 (AID 652275); type: functional
[20] = biological target: Broad substrate specificity ATP-binding cassette transporter ABCG2 (Homo sapiens, UniProt Q9UNQ0); experiment: ABCG2 efflux pump inhibitors, dose response, Ig-MXP3 cells, flow cytometry (AID 1690); type: functional
Chain of Broad substrate specificity ATP-binding cassette transporter ABCG2 (Q9UNQ0 whole entry): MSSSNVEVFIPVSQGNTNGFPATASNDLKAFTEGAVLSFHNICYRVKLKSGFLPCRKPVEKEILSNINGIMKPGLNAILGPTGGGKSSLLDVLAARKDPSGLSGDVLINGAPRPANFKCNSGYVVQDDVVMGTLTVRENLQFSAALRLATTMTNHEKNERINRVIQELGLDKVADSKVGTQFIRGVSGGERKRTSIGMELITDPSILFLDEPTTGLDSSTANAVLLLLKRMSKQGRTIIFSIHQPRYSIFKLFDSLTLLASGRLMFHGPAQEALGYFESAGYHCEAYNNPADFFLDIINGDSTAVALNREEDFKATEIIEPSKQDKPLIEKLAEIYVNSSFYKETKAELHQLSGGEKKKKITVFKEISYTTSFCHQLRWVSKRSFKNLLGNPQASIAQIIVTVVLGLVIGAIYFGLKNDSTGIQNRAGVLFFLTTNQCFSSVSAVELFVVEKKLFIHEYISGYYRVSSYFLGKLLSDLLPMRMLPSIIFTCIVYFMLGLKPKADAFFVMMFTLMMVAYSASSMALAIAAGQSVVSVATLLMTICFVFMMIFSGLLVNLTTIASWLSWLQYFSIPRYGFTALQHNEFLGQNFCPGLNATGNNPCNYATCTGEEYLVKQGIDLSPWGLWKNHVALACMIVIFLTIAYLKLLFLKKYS

T1 sequence (Q9P0U3 whole entry, the tested form may be a part): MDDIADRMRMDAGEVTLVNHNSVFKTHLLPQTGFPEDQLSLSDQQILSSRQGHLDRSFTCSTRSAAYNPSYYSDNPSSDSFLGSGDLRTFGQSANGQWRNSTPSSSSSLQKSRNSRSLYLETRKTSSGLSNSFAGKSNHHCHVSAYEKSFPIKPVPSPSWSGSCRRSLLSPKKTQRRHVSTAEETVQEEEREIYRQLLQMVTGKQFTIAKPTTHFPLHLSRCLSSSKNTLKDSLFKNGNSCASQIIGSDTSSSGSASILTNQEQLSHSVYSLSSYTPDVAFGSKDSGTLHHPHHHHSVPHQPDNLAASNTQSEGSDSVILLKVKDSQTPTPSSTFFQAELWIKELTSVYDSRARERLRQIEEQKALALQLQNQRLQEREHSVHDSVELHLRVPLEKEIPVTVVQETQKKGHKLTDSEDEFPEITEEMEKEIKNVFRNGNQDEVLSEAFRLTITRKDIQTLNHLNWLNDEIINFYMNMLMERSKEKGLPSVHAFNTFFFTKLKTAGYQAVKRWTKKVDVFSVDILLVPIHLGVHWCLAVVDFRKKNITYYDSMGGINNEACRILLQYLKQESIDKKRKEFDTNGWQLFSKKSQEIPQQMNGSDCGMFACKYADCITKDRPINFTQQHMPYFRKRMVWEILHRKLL

With `Nc1ccc2c(c1)-c1ccc(F)cc1C2=O` the IC50 [1] was 76.9 µM (inactive) and the IC50 [2] was 19.4 µM (active).

With `COc1ccc2c(c1OC)c(=O)n1c3ccc(OC(C)C(=O)NCCN4CCOCC4)cc3c3ccnc2c31` (stereo not given) the IC50 [3] was 21.3 µM (active) and the AC50 [4] was 4.31 µM (active).

For `O=C(O)Cc1cccc(O)c(=O)c1C(=O)O`, the IC50 [5] was 544 nM (active), the IC50 [6] was 3.9 µM (active) and the IC50 [7] was 376 nM (active). The IC50 [8] was 8.34 µM (active) and the IC50 [9] was 11.6 µM (active).

In the case of `O=C(NCCN1CCC2(CC1)C(=O)NCN2c1ccccc1)c1ccccc1F`, the AC50 [10] was 31.5 µM (active).

With `Oc1cc2c(c(Cl)c1O)CCNCC2c1ccccc1` (stereo not given) the IC50 [11] was > 100 µM (active), the EC50 [12] was 6.54 µM (active) and the IC50 [13] was 3.83 µM (active). The EC50 [14] was 92.5 µM (inactive), the IC50 [15] was > 100 µM (inactive) and the IC50 [16] was > 29.9 µM (inactive). For the same molecule, the EC50 [17] was 8.14 µM (active) and the AC50 [18] was 3.83 µM (active).

For `CC(C)N1C[C@@H](CN(C)Cc2ccc(Cl)cc2)Oc2c(NC(=O)c3ccnn3C)cccc2C1=O`, the AC50 [19] was 334 nM (active).

In the case of `CCOc1ccccc1NC(=O)C(OC(=O)c1ccc(N(C)C)cc1)c1ccccc1` (stereo not given), the EC50 [20] was 2.75 µM (active).
